Test results published in patent publication US8946201B2, “Methods for inhibiting TGF-β” (Saint Louis University, priority 2007, dated 2015).

Tests used:
[1] = system: TβR-I and TβR-II; experiment: 125I-TGF-β1 affinity labeling, CHO-K1 cells; type: cell-based, Chinese hamster; settings: 1 μM, 37° C. 16 hr, 0.12 untreated
Description: (A, B, C, D, E, F) Cells were treated with LDL (50 μg protein/ml), VLDL (5 μg protein/ml), HDL (50 μg protein/ml), lipoprotein (a) (10 μg/ml), fluvastatin (F; 1 μM), lovastatin (L; 1 μM), nystatin (Nys; 25 μg/ml), β-CD (β-CD; 8 mM), cholest-4-en-3-one (3-one; 50 μg/ml) or cholesterol (Chol; 50 μg/ml) alone or combination of two. After 1 hr at 37° C. or 16 hr at 37° C. (for fluvastatin and lovastatin), ^125I-TGF-β1 affinity labeling of cell-surface TGF-β receptors was performed at 0° C. ^125I-TGF-β1 affinity-labeled TβR-I and TβR-II were analyzed by 7.5% SDS-PAGE and autoradiography. The relative intensities of TβR-I and TβR-II were quantified with a PhosphoImager. The ratio of ^125I-TGF-β1 binding to TβR-II and TβR-I were estimated. The numbers above the lane sequence denote the ratio of TβR-II/TβR-I.
After cross-linking, cell lysates were analyzed by 7.5% SDS-PAGE and autoradiography or quantified by a PhosphoImager. For all experiments, cholesterol or cholesterol derivatives were prepared as the stock solution with a concentration of 25 mg/ml in ethanol. The final concentration of ethanol in the medium was 0.2% (by vol.). […]

[2] = system: PAI-1 expression; experiment: TGF-β1-induced PAI-1 expression, Northern blot, BAEC; type: cell-based, bovine; settings: 50 μg/ml, TGF-β1 2 to 100 pM
Description: (A, B, C, D, E, F) Cells were treated with 50 μg/ml cholesterol (A, B, C, D) and 50 μg/ml LDL (D) at 37° C. for 1 hr or with 1 μM fluvastatin or lovastatin (E) or several concentrations of fluvastatin (F) at 37° C. for 16 hr and then further incubated with increasing concentrations (as indicated) of TGF-β1 (A, B, C, E) or 50 pM TGF-β1 (D,F) for 2 hr. Northern blot analysis of PAI-1 and G3PDH was performed. A representative of a total of three analyses is shown (a). The relative intensities of the transcripts were quantified with a PhosphoImager. The ratio of the relative intensities of PAI-1 and G3PDH transcripts in cells treated without TGF-β1 and cholesterol, LDL or statins on the blot was taken as 1 fold or 100% of PAI-1 expression. The quantitative data from three independent analyses is shown (b). […] (G) Mv1Lu cells stably expressing a luciferase reporter gene driven by the PAI-1 promoter (MLECs-clone 32) were treated with increasing concentrations (as indicated) of cholesterol at 37 EC for 1 hr (a) or with 1 μM lovastatin at 37° C. for 16 hr (b) and then further incubated with 50 pM TGF-β for 7 hr. The luciferase activity in cells treated without cholesterol was taken as 100% (a). […] (H) Cells were incubated with 0.0625 and 0.125 pM TGF-β1 in the presence of increasing concentrations of cholesterol, as indicated. […] The experiments were carried out in triplicate.

| SMILES | ratio of TβR-II/TβR-I [1] | suppression of TGF-β1-stimulated PAI-1 expression [2] |
| --- | --- | --- |
| CC[C@H](C)C(=O)O[C@H]1C[C@@H](C)C=C2C=C[C@H](C)[C@H](CC[C@@H]3C[C@@H](O)CC(=O)O3)[C@H]21 [lovastatin, reference compound] | 0.18 | – |
| CC(C)CCC[C@@H](C)[C@H]1CC[C@H]2[C@@H]3CC=C4C[C@@H](O)CC[C@]4(C)[C@H]3CC[C@]12C [cholesterol] | – | 50-80% |
